Columns and labels:
[1] = system: glucosidase I, glucosidase IIα, glucosidase IIβ; assay: Immuno-fluorescence of glucosidases in GBM12 cells; assay type: cell-based; settings: 2.0 μM, 6 h
Ebola virus = assay type: cell-based
HSP27 = HSP27 (Homo sapiens, UniProt P04792); assay: Immuno-fluorescence of HSP27 expression in GBM cells; settings: GBM5, GBM6, GBM12 cells, 0–3.0 μM, 3 h
HSP90, GRP78, and HSP70 = assay: Immuno-fluorescence detection of chaperones in fixed cells; settings: HuH7 and HT1080, 0–3.0 μM ± sildenafil 2 μM, 2 h
Junin virus (JUNV) = assay type: cell-based
[2] = system: influenza A and B viruses; assay: Influenza virus-mediated cell lysis, live/dead assay in MRC5 cells; assay type: cell-based, human
NPC1 and TIM1 = assay type: cell-based
[3] = system: mTOR Serine 2448 phosphorylation; assay type: cell-based; settings: GBM5 cells, single agent 2.0 μM, 6 h
HSP70 ATPase = HSP70 ATPase (Homo sapiens, UniProt P0DMV8); assay: ATPase activity of immuno-precipitated HSP70-GFP; settings: 30 nM - 1 μM, 30 min at 37 °C
Chain of HSP70 ATPase (P0DMV8 whole entry): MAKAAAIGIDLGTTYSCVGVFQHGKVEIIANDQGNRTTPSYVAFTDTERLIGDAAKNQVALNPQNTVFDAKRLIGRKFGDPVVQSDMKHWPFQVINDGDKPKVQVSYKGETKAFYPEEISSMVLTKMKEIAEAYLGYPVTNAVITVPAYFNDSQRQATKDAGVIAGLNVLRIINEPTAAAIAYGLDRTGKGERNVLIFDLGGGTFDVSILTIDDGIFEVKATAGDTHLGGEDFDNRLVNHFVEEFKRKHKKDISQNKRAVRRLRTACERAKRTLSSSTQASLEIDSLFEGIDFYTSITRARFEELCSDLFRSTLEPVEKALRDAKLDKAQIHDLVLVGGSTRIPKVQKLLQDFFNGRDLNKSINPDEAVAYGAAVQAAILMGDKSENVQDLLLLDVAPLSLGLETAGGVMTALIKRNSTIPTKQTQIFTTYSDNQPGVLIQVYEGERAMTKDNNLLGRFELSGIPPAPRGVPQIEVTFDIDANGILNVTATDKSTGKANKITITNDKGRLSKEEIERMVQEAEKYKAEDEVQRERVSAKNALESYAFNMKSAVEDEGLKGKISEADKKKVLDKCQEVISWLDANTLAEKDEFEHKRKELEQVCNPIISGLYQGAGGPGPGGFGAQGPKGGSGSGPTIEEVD

HSP90 ATPase = assay: ATPase activity of immuno-precipitated FLAG-tagged HSP90; settings: 30 nM - 1 μM, 30 min at 37 °C
[4] = system: rabbit hemorrhagic disease virus (RHDV); assay: Rabbit hemorrhagic fever virus studies; assay type: in vivo

Chain of HSP27 (P04792 whole entry): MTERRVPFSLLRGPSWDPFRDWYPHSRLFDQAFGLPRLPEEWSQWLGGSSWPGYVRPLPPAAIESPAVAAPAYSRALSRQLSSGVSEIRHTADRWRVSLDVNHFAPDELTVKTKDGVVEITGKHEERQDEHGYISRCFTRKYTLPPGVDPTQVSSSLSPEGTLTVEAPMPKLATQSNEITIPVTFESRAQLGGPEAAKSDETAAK

SMILES	expression of glucosidase I and glucosidase IIα [1]	expression of glucosidase IIβ [1]	Ebola virus replication in vitro (Ebola virus)	expression of HSP27 (HSP27)	detection of HSP90, GRP78, and HSP70 in fixed in situ cells (HSP90, GRP78, and HSP70)	JUNV infected cells expressing viral nucleoprotein NP (Junin virus (JUNV))	replication of different strains of JUNV (Junin virus (JUNV))	influenza virus-mediated cell lysis / cell killing [2]	expression of Ebola virus receptors NPC1 and TIM1 in vitro (NPC1 and TIM1)	mTOR Serine 2448 phosphorylation [3]	effect on HSP70 ATPase activity (HSP70 ATPase)	effect on HSP90 ATPase activity (HSP90 ATPase)	animals that had died ([4]; […], vehicle approximately 70% at 60 h, P < 0.05, 25 mg/kg)	liver damage assessed by H&E staining of liver sections ([4]; rabbits, RHDV, 25 mg/kg x4)	virus-induced increases in plasma ALT, LDH, and GGT levels ([4]; rabbits, RHDV, 25 mg/kg x4)	expression of virus protein VP60 mRNA in liver ([4]; rabbits, RHDV, at the time of animal nadir, quantitative RT-PCR)	presence in mouse brain tissue 48 h after dosing (48 h after dosing)	peak brain concentration (mouse, IV bolus 10 mg/kg) [µM]	time to cross the blood brain barrier after dosing (mouse, IV bolus 10 mg/kg) [min]
NCC(=O)Nc1ccc(-n2nc(C(F)(F)F)cc2-c2ccc3c(ccc4ccccc43)c2)cc1 [AR-12]	rapidly reduced the expression	did not impact	suppressed the replication	reduced	rapid dose- and time-dependent reduction	drastically reduced	potently inhibited	reduced cell lysis / cell killing	reduced the expression	strongly reduced	inhibitory effects	inhibitory effects	approximately 30%	reduced obvious liver damage	significantly reduced	less expression	still detectable	2	≤ 5
Cc1ccc(Nc2nccc(N(C)c3ccc4c(C)n(C)nc4c3)n2)cc1S(N)(=O)=O [pazopanib]								reduced cell lysis / cell killing			inhibitory effects	inhibitory effects							
CNC(=O)c1cc(Oc2ccc(NC(=O)Nc3ccc(Cl)c(C(F)(F)F)c3)cc2)ccn1 [sorafenib, reference compound]	rapidly reduced the expression	did not impact		reduced				reduced cell lysis / cell killing			inhibitory effects	inhibitory effects							
